Test results taken from ChEMBL document CHEMBL1152598, “Synthesis and dopaminergic activity of some E-3-(piperidin-1-yl)-1-(4-substituted phenyl)prop-2-en-1-one derivatives” (2009).
Calls of active or inactive are those of the source. The calls are words filed in the database; no cut-off is given here.

Legend:
Rattus norvegicus [1] = assay: Dopaminergic activity in apomorphine-induced Wistar rat assessed as licking count at 30 mg/kg, ip treated 15 mins before apomorphine challenge measured after 10 mins for 60 mins by behavioral study; conditions: route intraperitoneal
Rattus norvegicus [2] = assay: Dopaminergic activity in apomorphine-induced Wistar rat assessed as licking count at 0.5 mg/kg, iv treated 15 mins before apomorphine challenge measured after 10 mins for 60 mins by behavioral study; format: functional
Rattus norvegicus [3] = assay: Effect on dopaminergic activity in apomorphine-induced Wistar rat assessed as licking count at 10 to 30 mg/kg, ip treated 15 mins before apomorphine challenge measured after 10 mins for 60 mins by behavioral study

| SMILES | Activity (Rattus norvegicus [1]) | Activity (Rattus norvegicus [2]) | Activity (Rattus norvegicus [3]) |
| --- | --- | --- | --- |
| COc1ccc(C(=O)/C=C/N2CCC(Cc3ccccc3)CC2)c(O)c1 | 520 |  |  |
| O=C(/C=C/N1CCC(O)(c2ccc(Br)cc2)CC1)c1ccc(O)cc1O | 1860 |  |  |
| O=C(/C=C/N1CCC(O)(c2ccccc2)CC1)c1ccc(O)cc1O | 1317 |  |  |
| O=C(/C=C/N1CCC(c2ccc(O)cc2)CC1)c1ccc(O)cc1O | 664 |  |  |
| COc1ccc(C(=O)/C=C/N2CCC(c3ccc(O)cc3)CC2)c(O)c1 | 1325 |  |  |
| COc1ccc(C(=O)/C=C/N2CCC(O)(c3ccc(Br)cc3)CC2)c(O)c1 | 1140 |  |  |
| O=C(CCCN1CCC(O)(c2ccc(Cl)cc2)CC1)c1ccc(F)cc1 [HALOPERIDOL] |  | 3.667 |  |
| COc1ccc(C(=O)/C=C/N2CCC(O)(c3ccc(Cl)cc3)CC2)c(O)c1 | 1575 |  |  |
| COc1ccc(C(=O)/C=C/N2CCC(O)(c3ccc(O)cc3)CC2)c(O)c1 | 2675 |  |  |
| O=C(/C=C/N1CCC(O)(c2ccc(Cl)cc2)CC1)c1ccc(O)cc1O | 115 |  | Active |
| O=C(/C=C/N1CCC(Cc2ccccc2)CC1)c1ccc(O)cc1O | 618 |  |  |
| O=C(/C=C/N1CCC(O)(c2ccc(O)cc2)CC1)c1ccc(O)cc1O | 1450 |  |  |
| COc1ccc(C(=O)/C=C/N2CCC(O)(c3ccccc3)CC2)c(O)c1 | 1800 |  |  |
